Numbered stars: 1 amine (or outer) side, 2 acyl side, 3 side chain; on linkers, the order of the positions; unused ones are H or OH. Square brackets hold non-standard residues; d marks the D form. Peptide text beside a SMILES is read from it. X1 = CC(O)CN(CC(=O)[*:2])[*:1]; N(iPr)Gly = CC(C)NCC(=O)O; NBuGly = CCCCNCC(=O)O; Nleu = CC(C)CNCC(=O)O
Test: Vitrification screening assay (critical EG concentration)
Format: physicochemical
Conditions: for EG required to permit vitrification: 20 μL sample, 5 mg/mL peptoid, formulation without peptoid needs 20% or more EG; for Critical Ethylene Glycol Concentration: lowest EG for complete vitrification of 20 μL sample, 5 mg/mL peptoid in formulation, liquid nitrogen immersion
Protocol: As another means of increasing the throughput of library analysis, a vitrification screening assay was performed to evaluate anti-icing efficacy. For these experiments the compounds named “Compound 11,” “Compound 12,” “Compound 25,” Compound 26,” “Compound 27,” “Compound 28,” “Compound 60,” “Compound 62,” “Compound 63,” “Compound 64,” “Compound 69,” “Compound 70,” “Compound 71,” “Compound 72,” “Compound 73,” “Compound 74,” “Compound 75,” “Compound 76,” “Compound 77,” “Compound 78,” “Compound 81,” “Compound 82,” “Compound 83,” “Compound 84,” and “Compound 85” were tested.
For these experiments, 20 μL samples were flash frozen by liquid immersion in liquid nitrogen. Ethylene glycol (EG) concentrations between 5% and 25% (v/v) were used. A concentration of 5 mg/mL of peptoid polymer compounds were used in formulation. Table 12 lists the lowest concentration of EG necessary to bring about complete vitrification of a 20 μL sample with peptoid polymer in formulation, referred to as the “critical EG concentration.” A sample of formulation without the presence of a peptoid polymer was only able to bring about vitrification at 20% or more EG. Peptoid polymers of interest were able to bring about vitrification within formulas containing EG when the concentration of EG was lower than 20%.

SMILES	EG required to permit vitrification	Critical Ethylene Glycol Concentration
CCC(C)N(CC(N)=O)C(=O)CN(C(=O)CN(CC(C)O)C(=O)CN(CC(C)O)C(=O)CN(C(=O)CN(C(=O)CN(CC(C)O)C(=O)CNCC(C)O)C(C)CC)C(C)CC)C(C)CC (stereo not drawn) [Compound 82, Nhp-Nhp-Nsb-Nsb-Nhp-Nhp-Nsb-Nsb]	required significantly less EG in order to permit vitrification	12.5% (ν/ν)
CCC(C)NCC(=O)N(CC(=O)N(CC(=O)N(CC(=O)N(CC(=O)N(CC(=O)N(CC(=O)N(CC(=O)N(CC(=O)N(CC(=O)N(CC(=O)N(CC(=O)N(CC(=O)N(CC(=O)N(CC(=O)N(CC(=O)N(CC(=O)N(CC(=O)N(CC(=O)N(CC(=O)N(CC(=O)N(CC(N)=O)C(C)CC)C(C)CC)CC(C)O)CC(C)O)C(C)CC)C(C)CC)CC(C)O)CC(C)O)C(C)CC)C(C)CC)CC(C)O)CC(C)O)C(C)CC)C(C)CC)CC(C)O)CC(C)O)C(C)CC)C(C)CC)CC(C)O)CC(C)O)C(C)CC (stereo not drawn) [Compound 85, Nsb-Nsb-Nhp-Nhp-Nsb-Nsb-Nhp-Nhp-Nsb-Nsb-Nhp-Nhp-Nsb-Nsb-Nhp-Nhp-Nsb-Nsb-Nhp-Nhp-Nsb-Nsb]	required significantly less EG in order to permit vitrification	10.0% (ν/ν)
CCC(C)NCC(=O)N(CC(=O)N(CC(=O)N(CC(=O)N(CC(=O)N(CC(=O)N(CC(=O)N(CC(=O)N(CC(=O)N(CC(N)=O)C(C)CC)C(C)CC)CC(C)O)C(C)CC)C(C)CC)C(C)CC)CC(C)O)CC(C)O)C(C)CC (stereo not drawn) [Compound 70, Nsb-Nsb-Nhp-Nhp-Nsb-Nsb-Nsb-Nhp-Nsb-Nsb]	–	15.0% (ν/ν)
CCC(C)NCC(=O)N(CC(=O)N(CC(=O)N(CC(=O)N(CC(=O)N(CC(=O)N(CC(=O)N(CC(=O)N(CC(=O)N(CC(N)=O)C(C)CC)C(C)CC)CC(C)O)CC(C)O)C(C)CC)C(C)CC)C(C)CC)CC(C)O)C(C)CC (stereo not drawn) [Compound 71, Nsb-Nsb-Nhp-Nsb-Nsb-Nsb-Nhp-Nhp-Nsb-Nsb]	–	17.5% (ν/ν)
CCC(C)NCC(=O)N(CC(=O)N(CC(=O)N(CC(=O)N(CC(=O)N(CC(=O)N(CC(=O)N(CC(=O)N(CC(=O)N(CC(N)=O)C(C)CC)C(C)CC)CC(C)O)CC(C)O)C(C)CC)C(C)CC)CC(C)O)C(C)CC)C(C)CC (stereo not drawn) [Compound 72, Nsb-Nsb-Nsb-Nhp-Nsb-Nsb-Nhp-Nhp-Nsb-Nsb]	–	17.5% (ν/ν)
CCCCNCC(=O)N(CCCC)CC(=O)N(CC(=O)N(CC(=O)N(CCCC)CC(=O)N(CCCC)CC(=O)N(CC(=O)N(CC(=O)N(CCCC)CC(=O)N(CCCC)CC(N)=O)CC(C)O)CC(C)O)CC(C)O)CC(C)O (stereo not drawn) [Compound 26, Nbu-Nbu-Nhp-Nhp-Nbu-Nbu-Nhp-Nhp-Nbu-Nbu] (H-[NBuGly][NBuGly][X1][X1][NBuGly][NBuGly][X1][X1][NBuGly][NBuGly]-NH2)	–	15.0% (ν/ν)
CCC(C)NCC(=O)N(CC(=O)N(CC(=O)N(CC(=O)N(CC(=O)N(CC(=O)N(CC(=O)N(CC(=O)N(CC(=O)N(CC(N)=O)C(C)CC)C(C)CC)C(C)CC)CC(C)O)C(C)CC)C(C)CC)CC(C)O)CC(C)O)C(C)CC (stereo not drawn) [Compound 69, Nsb-Nsb-Nhp-Nhp-Nsb-Nsb-Nhp-Nsb-Nsb-Nsb]	–	15.0% (ν/ν)
CCC(C)NCC(=O)N(CC(=O)N(CC(=O)N(CC(=O)N(CC(=O)N(CC(N)=O)C(C)CC)C(C)CC)CC(C)O)CC(C)O)C(C)CC (stereo not drawn) [Compound 81, Nsb-Nsb-Nhp-Nhp-Nsb-Nsb]	–	15.0% (ν/ν)
CC[C@@H](C)NCC(=O)N(CC(=O)N(CC(=O)N(CC(=O)N(CC(=O)N(CC(=O)N(CC(=O)N(CC(=O)N(CC(=O)N(CC(N)=O)[C@H](C)CC)[C@H](C)CC)C[C@H](C)O)C[C@H](C)O)[C@H](C)CC)[C@H](C)CC)C[C@H](C)O)C[C@H](C)O)[C@H](C)CC [Compound 78, Nbr-Nbr-Nsh-Nsh-Nbr-Nbr-Nsh-Nsh-Nbr-Nbr]	–	15.0% (ν/ν)
CC[C@@H](C)NCC(=O)N(CC(=O)N(CC(=O)N(CC(=O)N(CC(=O)N(CC(=O)N(CC(=O)N(CC(=O)N(CC(=O)N(CC(N)=O)[C@H](C)CC)[C@H](C)CC)C[C@@H](C)O)C[C@@H](C)O)[C@H](C)CC)[C@H](C)CC)C[C@@H](C)O)C[C@@H](C)O)[C@H](C)CC [Compound 77, Nbr-Nbr-Nrh-Nrh-Nbr-Nbr-Nrh-Nrh-Nbr-Nbr]	–	15.0% (ν/ν)
CCC(C)NCC(=O)N(CC(=O)N(CC(=O)N(CC(=O)N(CC(=O)N(CC(=O)N(CC(=O)N(CC(=O)N(CC(=O)N(CC(=O)N(CC(=O)N(CC(=O)N(CC(=O)N(CC(N)=O)C(C)CC)C(C)CC)CC(C)O)CC(C)O)C(C)CC)C(C)CC)CC(C)O)CC(C)O)C(C)CC)C(C)CC)CC(C)O)CC(C)O)C(C)CC (stereo not drawn) [Compound 83, Nsb-Nsb-Nhp-Nhp-Nsb-Nsb-Nhp-Nhp-Nsb-Nsb-Nhp-Nhp-Nsb-Nsb]	required significantly less EG in order to permit vitrification	10.0% (ν/ν)
CCC(C)N(CC(=O)N(CC(=O)N(CC(=O)N(CC(=O)N(CC(=O)N(CC(=O)N(CC(=O)N(CC(=O)N(CC(=O)N(CC(N)=O)C(C)CC)C(C)CC)CC(C)O)CC(C)O)C(C)CC)C(C)CC)CC(C)O)CC(C)O)C(C)CC)C(C)=O (stereo not drawn) [Compound 60, Ac-Nsb-Nsb-Nhp-Nhp-Nsb-Nsb-Nhp-Nhp-Nsb-Nsb]	required significantly less EG in order to permit vitrification	12.5% (ν/ν)
CC(O)CN(CC(=O)N(CC(=O)N(CC(=O)N(CC(=O)N(CC(=O)N(CC(=O)N(CC(=O)N(CC(N)=O)C(C)C)C(C)C)CC(C)O)CC(C)O)C(C)C)C(C)C)CC(C)O)C(=O)CN(C(=O)CNC(C)C)C(C)C (stereo not drawn) [Compound 28, Nip-Nip-Nhp-Nhp-Nip-Nip-Nhp-Nhp-Nip-Nip] (H-[N(iPr)Gly][N(iPr)Gly][X1][X1][N(iPr)Gly][N(iPr)Gly][X1][X1][N(iPr)Gly][N(iPr)Gly]-NH2)	–	15.0% (ν/ν)
CCC(C)NCC(=O)N(CC(=O)N(CC(=O)N(CC(=O)N(CC(=O)N(CC(=O)N(CC(=O)N(CC(=O)N(CC(=O)N(CC(N)=O)C(C)CC)C(C)CC)Cc1ccco1)Cc1ccco1)C(C)CC)C(C)CC)Cc1ccco1)Cc1ccco1)C(C)CC (stereo not drawn) [Compound 73, Nsb-Nsb-Nff-Nff-Nsb-Nsb-Nff-Nff-Nsb-Nsb]	–	20.0% (ν/ν)
CC(C)CNCC(=O)N(CC(=O)N(CC(=O)N(CC(=O)N(CC(=O)N(CC(=O)N(CC(=O)N(CC(=O)N(CC(=O)N(CC(N)=O)CC(C)C)CC(C)C)CC(C)O)CC(C)O)CC(C)C)CC(C)C)CC(C)O)CC(C)O)CC(C)C (stereo not drawn) [Compound 25, Nib-Nib-Nhp-Nhp-Nib-Nib-Nhp-Nhp-Nib-Nib] (H-[Nleu][Nleu][X1][X1][Nleu][Nleu][X1][X1][Nleu][Nleu]-NH2)	–	12.5% (ν/ν)
CCC(C)NCC(=O)N(CC(=O)N(CC(=O)N(CC(=O)N(CC(=O)N(CC(=O)N(CC(=O)N(CC(=O)N(CC(=O)N(CC(=O)N(CC(=O)N(CC(=O)N(CC(=O)N(CC(=O)N(CC(=O)N(CC(=O)N(CC(=O)N(CC(N)=O)C(C)CC)C(C)CC)CC(C)O)CC(C)O)C(C)CC)C(C)CC)CC(C)O)CC(C)O)C(C)CC)C(C)CC)CC(C)O)CC(C)O)C(C)CC)C(C)CC)CC(C)O)CC(C)O)C(C)CC (stereo not drawn) [Compound 84, Nsb-Nsb-Nhp-Nhp-Nsb-Nsb-Nhp-Nhp-Nsb-Nsb-Nhp-Nhp-Nsb-Nsb-Nhp-Nhp-Nsb-Nsb]	required significantly less EG in order to permit vitrification	12.5% (ν/ν)

— patent US12391799B2, “Peptoid polymers and methods of use” (X-Therma, Inc., priority 2017, dated 2025)
